Counter-ions that a name gives are not always drawn.
System: MTT (mouse pheochromocytoma)
Assay: IC50 of cell viability (ATP content)
Settings: (24 or 48 h)
How it was run: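 MTT mouse pheochromocytoma cells (5 µl of 200,000 cells/ml per well, white 1536-well plates, DMEM with 5% FBS and 1% horse serum) were cultured overnight at 37°C, 5% CO2. They then received 23 nl library compound in DMSO by pintool at 8 concentrations (final 0.5 nM to 46 µM) for 24 or 48 hrs. CellTiter-Glo ATP luminescence was read after 15 minutes. Signals were normalised to positive-control (100% inhibition) and DMSO (0%) wells, and IC50 came from a four-parameter logistic fit.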

Compound: CNC1CCCN(c2c(F)cc3c(=O)c(C(=O)O)cn(C4CC4)c3c2OC)C1 (stereo not drawn) [BALOFLOXACIN HYDRATE]
- IC50 of cell viability: > 46 µM

Compound: O=C(O)CCNC(=O)c1ccc(/N=N/c2ccc(O)c(C(=O)O)c2)cc1 [BALSALAZIDE DISODIUM]
- IC50 of cell viability: > 46 µM

Compound: CCCCCCCCCCCCCCCCCCOCC(O)CO (stereo not drawn) [BATYL ALCOHOL]
- IC50 of cell viability: > 46 µM

Compound: NCC1O[C@@H](O[C@@H]2C(O)[C@H](O[C@H]3OC(CO)C(O)C(N)C3O)[C@@H](N)C[C@H]2N)C(N)C(O)C1O.O=[S+]([O-])(O)O (stereo partly drawn) [BEKANAMYCIN SULFATE]
- IC50 of cell viability: > 46 µM

Compound: CCN(CC)CCOC(=O)C(O)(c1ccccc1)c1ccccc1 [BENACTYZINUM]
- IC50 of cell viability: > 46 µM

Compound: Cn1c(CCCC(=O)O)nc2cc(N(CCCl)CCCl)ccc21 [BENDAMUSTINUM]
- IC50 of cell viability: > 46 µM

Compound: O=C([O-])COc1nn(Cc2ccccc2)c2ccccc12 [BENDAZAC]
- IC50 of cell viability: > 46 µM

Compound: CC(Cc1cccc(C(F)(F)F)c1)NCCOC(=O)c1ccccc1.Cl (stereo not drawn) [BENFLUOREX HYDROCHLORIDE]
- IC50 of cell viability: > 46 µM

Compound: CC(=O)Nc1ccc(OC(=O)c2ccccc2OC(C)=O)cc1 [BENORILATE]
- IC50 of cell viability: > 46 µM

Compound: CCCCCCCCCCCCCC[N+](C)(C)Cc1ccccc1.O.[Cl-] [BENZALKONIUM CHLORIDE]
- IC50 of cell viability: > 46 µM

Compound: CN1C2CCC1C(C(=O)O)C(OC(=O)c1ccccc1)C2 (stereo not drawn) [BENZOYLECGONINE]
- IC50 of cell viability: > 46 µM

Compound: O=C(O)CNC(=O)CNC(=O)CNC(=O)CSC(=O)c1ccccc1 [BENZOYLMERCAPTOACETYLGLYCYLGLYCYLGLYCINE (Betiatide)]
- IC50 of cell viability: > 46 µM

Compound: CN1C2CCC1CC(OC(c1ccccc1)c1ccccc1)C2.O=[S+]([O-])(O)O (stereo not drawn) [BENZTROPINE]
- IC50 of cell viability: > 46 µM

Compound: O=C(/C=C/c1ccccc1)OCc1ccccc1 [BENZYL CINNAMATE]
- IC50 of cell viability: > 46 µM

Compound: O=C(OCc1ccccc1)c1cccnc1 [BENZYL NICOTINATE]
- IC50 of cell viability: > 46 µM

Compound: CC(C)COCC(CN(Cc1ccccc1)c1ccccc1)N1CCCC1 (stereo not drawn) [BEPRIDIL]
- IC50 of cell viability: > 46 µM

Compound: CC#CC[C@@H](C)[C@@H](O)/C=C/[C@H]1[C@H]2c3cccc(CCCC(=O)[O-])c3O[C@H]2C[C@@H]1O [BERAPROST SODIUM]
- IC50 of cell viability: > 46 µM

Compound: C[N+](C)(C)CC(=O)[O-].Cl [BETAINE HYDROCHLORIDE]
- IC50 of cell viability: > 46 µM

Compound: O=C(O)CCNC(=O)c1ccccc1 [BETAMIPRON]
- IC50 of cell viability: > 46 µM

Compound: CCC(=O)OC1(c2ccccc2)CCN(C)CC1C (stereo not drawn) [BETAPRODINUM]
- IC50 of cell viability: > 46 µM

Compound: CC(C)NCC(O)COc1ccc(CCOCC2CC2)cc1 (stereo not drawn) [BETAXOLOL]
- IC50 of cell viability: > 46 µM

Compound: C[N+]1(C)CCCCC1COC(=O)C(O)(c1ccccc1)c1ccccc1 (stereo not drawn) [BEVONIUM METHYLSULFATE]
- IC50 of cell viability: > 46 µM

Compound: C=C(c1ccc(C(=O)O)cc1)c1cc2c(cc1C)C(C)(C)CCC2(C)C [BEXAROTENE]
- IC50 of cell viability: > 46 µM

Compound: CN1CCC(Nc2ncc3ncnc(Nc4ccc(F)c(Cl)c4)c3n2)CC1 [BIBX 1382 dihydrochloride]
- IC50 of cell viability: > 46 µM

Compound: c1ccc(-c2ccc(C(c3ccccc3)n3ccnc3)cc2)cc1 (stereo not drawn) [BIFONAZOLE]
- IC50 of cell viability: > 46 µM

Compound: O=C(O)Cc1cccc(-c2cc(CCCCCCc3ccc(O[C@H]4O[C@H](CO)[C@@H](O)[C@H](O)[C@@H]4O)c(-c4cccc(CC(=O)O)c4)c3)ccc2O[C@H]2O[C@H](CO)[C@@H](O)[C@H](O)[C@@H]2O)c1 [BIMOSIAMOSE DISODIUM]
- IC50 of cell viability: > 46 µM

Compound: CC(C)=CC1C(C(=O)OCc2coc(Cc3ccccc3)c2)C1(C)C (stereo not drawn) [BIORESMETHRINUM]
- IC50 of cell viability: > 46 µM

Compound: CC(C)=CCC[C@](C)(O)C1CC\C(=C/C1)C (stereo partly drawn) [BISABOLOL]
- IC50 of cell viability: > 46 µM

Compound: [O]=[Bi][O][Bi]=[O] [BISMUTH OXIDE]
- IC50 of cell viability: > 46 µM

Compound: CC(C)(C)CC(C)(C)c1cc(Cc2cc(C(C)(C)CC(C)(C)C)cc(-n3nc4ccccc4n3)c2O)c(O)c(-n2nc3ccccc3n2)c1 [BISOCTRIZOLE]
- IC50 of cell viability: > 46 µM

Compound: CCN1CCN(c2cc(-c3ccc(F)cc3)c3c(n2)CCCCCC3)CC1 [BLONANSERIN]
- IC50 of cell viability: > 46 µM

Compound: O=C1Oc2ccccc2C(=O)C1C(CC(O)c1ccc(-c2ccc(Br)cc2)cc1)c1ccccc1 (stereo not drawn) [BOLDO]
- IC50 of cell viability: > 46 µM

Compound: Cc1cc2c(OCC(CNC(C)(C)C)OC(=O)c3ccccc3)cccc2[nH]1 (stereo not drawn) [BOPINDOLOL]
- IC50 of cell viability: > 46 µM

Compound: CC1(C)C2CC[C@]1(C)[C@@H](O)C2 [BORNEOL]
- IC50 of cell viability: > 46 µM

Compound: CC(=O)OC1CC2CCC1(C)C2(C)C (stereo not drawn) [BORNYL ACETATE]
- IC50 of cell viability: > 46 µM

Compound: COc1ccccc1Oc1c(N[S+](=O)([O-])c2ccc(C(C)(C)C)cc2)nc(-c2ncccn2)nc1OCCO [BOSENTAN]
- IC50 of cell viability: > 46 µM

Compound: Nc1c(CC(=O)[O-])cccc1C(=O)c1ccc(Br)cc1 [BROMFENAC SODIUM]
- IC50 of cell viability: > 46 µM

Compound: CN(Cc1cc(Br)cc(Br)c1N)C1CCCCC1.Cl [BROMHEXINE HYDROCHLORIDE]
- IC50 of cell viability: > 46 µM

Compound: CCN(CC)CCNC(=O)c1cc(Br)c(N)cc1OC [BROMOPRIDE]
- IC50 of cell viability: > 46 µM

Compound: Nc1nc(O)c(Br)c(-c2ccccc2)n1 [BROPIRIMINE]
- IC50 of cell viability: > 46 µM

Compound: COC1=CC2=C(C=C1OC)[C@@]34CCN5CC/6=C/COC7CC(=O)N2C3[C@H]7[C@@H]6C[C@H]45 (stereo partly drawn) [BRUCINE]
- IC50 of cell viability: > 46 µM

Compound: CCC/C=C/C=C/C(=O)OC1/C(=C/C(=O)OC)CC2CC(C(C)O)OC(=O)CC(O)CC3CC(OC(C)=O)C(C)(C)C(O)(CC4C/C(=C/C(=O)OC)CC(C=CC(C)(C)C1(O)O2)O4)O3 (stereo not drawn) [BRYOSTATIN-1]
- IC50 of cell viability: > 46 µM

Compound: CCCC(=O)Nc1ncnc2c1ncn2C1OC2COP(=O)(O)OC2C1OC(=O)CCC (stereo not drawn) [BUCLADESINE]
- IC50 of cell viability: > 46 µM

Compound: CCCCC1C(=O)NC(=O)N(C2CCCCC2)C1=O (stereo not drawn) [BUCOLOME]
- IC50 of cell viability: > 46 µM

Compound: C[C@]12CC[C@H](O)C[C@H]1CCC1C2CC[C@]2(C)[C@@H](c3ccc(=O)oc3)C[C@H]3O[C@]132 (stereo partly drawn) [BUFOGENIN]
- IC50 of cell viability: > 46 µM

Compound: CCCCNC(=N)NC(=N)N [BUFORMIN HYDROCHLORIDE]
- IC50 of cell viability: > 46 µM

Compound: CCCCN1CCCC1C(=O)Nc1c(C)cc(C)cc1C (stereo not drawn) [BUMECAINUM]
- IC50 of cell viability: > 46 µM

Compound: CCCC(=O)N1CCCN(c2nc(N)c3cc(OC)c(OC)cc3n2)CC1 [BUNAZOSIN HYDROCHLORIDE]
- IC50 of cell viability: > 46 µM

Compound: CCOC(=O)c1cnc2cc(OCC(C)C)c(OCC(C)C)cc2c1O [BUQUINOLATE]
- IC50 of cell viability: > 46 µM

Compound: O=C1CC2(CCCC2)CC(=O)N1CCCCN1CCN(c2ncccn2)CC1 [BUSPIRONE]
- IC50 of cell viability: > 46 µM

Compound: CCCCOC(=O)c1ccc(N)cc1 [BUTAMBEN]
- IC50 of cell viability: > 46 µM

Compound: CCC(C(=O)OCCN(CC)CC)c1ccccc1 (stereo not drawn) [BUTETAMATUM]
- IC50 of cell viability: > 46 µM

Compound: CCCC[N+]1(C)C2CC(OC(=O)C(CO)c3ccccc3)CC1C1OC12 (stereo not drawn) [BUTYLSCOPOLAMMONIUM]
- IC50 of cell viability: > 46 µM

Compound: CCOC(=O)O[C@@H](C)OC(=O)[C@@H]1[N@]2[C@@H](SC1(C)C)[C@H](NC(=O)[C@@H](N)C3=CC=CC=C3)C2=O [Bacampicillin hydrochloride]
- IC50 of cell viability: > 46 µM

Compound: CC[C@H](C)[C@H](N)\C1=N\[C@@H](CS1)C(=O)N[C@@H](CC(C)C)C(=O)N[C@@H](CCC(O)=O)C(=O)N[C@H]([C@@H](C)CC)C(=O)N[C@@H]2CCCCNC(=O)[C@@H](CC(N)=O)NC(=O)[C@@H](CC(O)=O)NC(=O)[C@@H](CC3=CN=C[NH]3)NC(=O)[C@@H](CC4=CC=CC=C4)NC(=O)[C@H](NC(=O)[C@@H](CCCN)NC2=O)[C@@H](C)CC [Bacitracin]
- IC50 of cell viability: > 46 µM

Compound: CN(C)C(=O)Oc1cc(OC(=O)N(C)C)cc([C@@H](O)CNC(C)(C)C)c1 [Bambuterol hydrochloride]
- IC50 of cell viability: > 46 µM

Compound: CCCCNCC(O)c1ccc(O)cc1 (stereo not drawn) [Bametano]
- IC50 of cell viability: > 46 µM

Compound: CCN(CCO)CCn1c(Cc2ccccc2)nc2c1c(=O)n(C)c(=O)n2C [Bamifylline Hydrochloride]
- IC50 of cell viability: > 46 µM

Compound: CCC1(CC)C(=O)NC(=O)NC1=O [Barbital]
- IC50 of cell viability: > 46 µM

Compound: COC(=O)C1=C(C)NC(C)=C(C(=O)O[C@H]2CCN(Cc3ccccc3)C2)C1c1cccc([N+](=O)[O-])c1 (stereo partly drawn) [Barnidipine]
- IC50 of cell viability: > 46 µM

Compound: Cc1c(-c2ccc(O)cc2)n(Cc2ccc(OCCN3CCCCCC3)cc2)c2ccc(O)cc12 [Bazedoxifene]
- IC50 of cell viability: > 46 µM

Compound: CCC(=O)OCC(=O)C1(OC(=O)CC)C(C)CC2C3CCC/4=C/C(=O)/C=C\C4(C)C3(Cl)C(O)CC12C (stereo not drawn) [Beclazone]
- IC50 of cell viability: > 46 µM

Compound: C[C@H]1C[C@H]2[C@@H]3CCC4=CC(=O)C=C[C@]4(C)[C@@]3(Cl)[C@@H](O)C[C@]2(C)[C@@]1(O)C(=O)CO [Beclomethasone]
- IC50 of cell viability: > 46 µM

Compound: O=C(c1cc2ccccc2o1)N1CCN(Cc2ccccc2)CC1 [Befuralina]
- IC50 of cell viability: > 46 µM

Compound: CCC1(C)CC(=O)NC(=O)C1 [Bemegride]
- IC50 of cell viability: > 46 µM

Compound: O=C(O)c1ccc(N[C@@H]2OC[C@@H](O)[C@@H](O)[C@@H]2O)cc1 [Benaxibine]
- IC50 of cell viability: > 46 µM

Compound: CC1=C(C\C2=N\CCN2)C3=C(S1)C=CC=C3.OC(=O)C(O)=O [Benazoline oxalate]
- IC50 of cell viability: > 46 µM

Compound: N[S+](=O)([O-])c1cc2c(cc1C(F)(F)F)N[C@H](Cc1ccccc1)N[S+]2(=O)[O-] [Bendroflumethiazide]
- IC50 of cell viability: > 46 µM
